Literature values as cited in patent US20030108495A1, “Cosmetic compositions containing 2,2-dihydroxymethy1-1,3-dioxolanes” (priority 2001, published 2003).

Tested on: moisturized human skin
Details: cosmetic composition applied to moisturized human skin

O=C(CO)CO [DHA, 1,3-dihydroxyacetone]
time after initial application until tan appearance (brown-colored melanoidins): approximately five
